Experimental data reported in US20180117159A1, “Method for producing solid formulations with improved dissolution by annealing with an adjuvant” (priority 2016, published 2018).

Legend:
Assay type in all cases: physicochemical
[1] = solubility of indomethacin in aqueous buffer at pH 2.5 (excess solid, stirred, 20 nm filtered, HPLC)
Method: In addition to Examples 1-6, other experiments were done in which the solubility of indomethacin in aqueous buffer at pH 2.5 was determined. This was done by placing an excess amount of indomethacin solid (approximately 100 mg) in 20 mL of the buffer and stirring at a constant temperature of 37° C. for three days, after which an aliquot was taken and filtered through a Watman Anotop-10 20 nm filter, then assayed by HPLC for the dissolved indomethacin concentration in the solution. Subsequently, the temperature of the remaining indomethacin-buffer mixture was raised to approximately 95° C. and kept at that temperature with stirring for an additional 24 hours. After 24 hours, the dissolved indomethacin concentration was again determined by taking an aliquot, filtering through a 20 nm Anotop-10 filter, and assaying by HPLC.

[2] = differential scanning calorimetry of annealed indomethacin-PVP mixtures (absence of melting endotherm = all drug dissolved)
Method: Binary physical mixtures of the drug indomethacin and the polymer PVP (polyvinylpyrrolidone K29/32), both used as received, were mixed in various ratios, so the drug weight fraction ranged from 2.5-30% w/w (compared to the total physical mixture). Mixing was done for 15 minutes using a mortar and pestle. Solid solutions were then prepared by annealing and annealing with an adjuvant.
Annealing was done by transferring weighed samples of the physical mixtures into glass vials, which were then stored in an oven without inducing a vacuum at 130° C. for 6 days to equilibrate and allow the indomethacin to distribute and dissolve in the PVP. After annealing, the samples were allowed to cool to room temperature.
Annealing with an adjuvant was done by transferring weighed amounts of the physical mixtures into glass vials, then adding the adjuvant ethanol dropwise to the surface of the physical mixture in each vial in an adjuvant weight equal to approximately 25% of each dry drug-polymer physical mixture sample. No mixing of the adjuvant and physical mixture was done after adding the ethanol drops. The drug, polymer and adjuvant were then allowed to anneal in an oven at 70° C., with some samples annealing for 4 hours, some for 8 hours and some for 12 hours. After annealing with an adjuvant for each specified time, the samples were allowed to cool to room temperature. […]

[3] = dissolution, USP Type II (paddle) apparatus, 150 mg formulation in 500 mL phosphate buffer pH 2.5 at 37° C.; details: pH 2.5 buffer, 30 minutes
Method: Dissolution experiments were done using a USP Type II (paddle type) apparatus, dissolving 150 mg of formulation in 500 mL of water buffered to a pH of 2.5 using phosphate buffer at 37° C. This corresponded to 15 mg of indomethacin per 500 mL of dissolution medium for the 10% indomethacin formulation, and 30 mg of indomethacin per 500 mL of dissolution medium for the 20% indomethacin formulation. In addition, pure indomethacin was dissolved in a similar USP type II apparatus for 30 minutes for comparison. […]

estimate for the solubility of indomethacin in the aqueous buffer ([1]; 37° C., pH 2.5, estimate from solubility experiment and Example 1 dissolution): one to two
solubility at 3 days ([1]; aqueous buffer, thermodynamic from solid, pH 2.5, 37° C., after three days stirring, read-out: dissolved indomethacin concentration (solubility) in aqueous buffer): < 0.001 mg/mL
solubility ([1]; aqueous buffer, thermodynamic from solid, pH 2.5, three days at 37° C. plus an additional day at 95° C., read-out: dissolved indomethacin concentration (solubility) in aqueous buffer): ~0.027 mg/mL
dissolved indomethacin concentration (solubility) in aqueous buffer ([1]; pH 2.5, 37° C., after three days stirring): below one
indomethacin concentration in PVP up to which all of the drug dissolved (no melting endotherm by DSC) ([2]; annealed with ethanol adjuvant (about 25% of mixture weight) for 12 hours at 70° C.): approximately 15 % by weight
indomethacin concentration in PVP up to which all of the drug dissolved (no melting endotherm by DSC) ([2]; annealed without an adjuvant for 6 days at 130° C.): approximately 15 % by weight
dissolution in the aqueous buffer compared with indomethacin in physical mixtures with PVP [3]: much slower
SMILES: COc1ccc2c(c1)c(CC(=O)O)c(C)n2C(=O)c1ccc(Cl)cc1 [indomethacin]
